{
  "source": "patent US8673889B2",
  "about": "“BLT2-mediated disease, BLT2 binding agent and the compound” (Ono Pharmaceutical Co., Ltd., priority 2004, dated 2014)",
  "type_in_all_cases": "cell-based",
  "key": {"mBLT1 [1]": {"target": "T1, mBLT1 (Mus musculus, UniProt O88855)", "T1 construct": "expressed in transfected cells; host or cells: CHO cells", "T1 sequence (O88855 whole entry)": "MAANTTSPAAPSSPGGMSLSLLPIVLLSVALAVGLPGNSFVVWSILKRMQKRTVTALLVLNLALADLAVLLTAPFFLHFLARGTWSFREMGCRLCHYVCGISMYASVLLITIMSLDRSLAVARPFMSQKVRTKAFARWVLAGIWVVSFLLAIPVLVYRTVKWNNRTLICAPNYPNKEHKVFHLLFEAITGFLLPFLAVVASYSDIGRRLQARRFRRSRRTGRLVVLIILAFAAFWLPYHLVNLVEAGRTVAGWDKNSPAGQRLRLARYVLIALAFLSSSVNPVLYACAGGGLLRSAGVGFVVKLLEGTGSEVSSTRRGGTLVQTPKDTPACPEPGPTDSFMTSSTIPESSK", "test": "ERK phosphorylation (1) in mBLT1-expressing CHO cells", "details": "ligand 5 minutes, FIG. 5"}, "mBLT2 [2]": {"target": "T2, mBLT2 (Mus musculus, UniProt Q9JJL9)", "T2 construct": "mBLT2 ORF was amplified by PCR using a sense primer having BamHI restriction enzyme site; expressed in transfected cells", "T2 sequence (Q9JJL9 1-360)": "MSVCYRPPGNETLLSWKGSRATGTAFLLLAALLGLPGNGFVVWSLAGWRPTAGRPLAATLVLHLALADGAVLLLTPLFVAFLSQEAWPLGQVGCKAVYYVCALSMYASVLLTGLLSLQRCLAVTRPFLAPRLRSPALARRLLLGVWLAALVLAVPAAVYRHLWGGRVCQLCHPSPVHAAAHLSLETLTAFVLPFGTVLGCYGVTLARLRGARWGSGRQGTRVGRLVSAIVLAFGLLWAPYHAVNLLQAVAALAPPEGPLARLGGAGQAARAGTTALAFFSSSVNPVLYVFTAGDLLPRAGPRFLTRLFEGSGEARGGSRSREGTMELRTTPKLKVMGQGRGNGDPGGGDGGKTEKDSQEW", "test": "Measurement of intracellular Ca2+ concentration in mBLT2-expressing CHO cells", "details": "FIG. 4, read-out: EC50 value, rise of the intracellular calcium concentration", "text": "mBLT2 ORF was amplified by PCR using a sense primer having BamHI restriction enzyme site (sense primer; 5′-[…]-3′ (SEQ ID NO.1)) and an antisense primer having EcoRI restriction enzyme site (antisense primer; 5′-[…]-3′ (SEQ ID NO.2)). The PCR product was digested with BamHI and EcoRI and inserted in expression plasmid (pcDNA3 Invitrogen). The inserted sequence was confirmed by the DNA sequence. Plasmid DNA ([…]) was transfected into CHO cells cultured in Ham's F-12 medium containing 10% fetal bovine serum and antibiotic (streptomycin (100 μg/mL) and penicillin (100 μg/L)) in cell culture plates (6 cm). The resistant strains were obtained by culturing for 2 weeks in the existence of antibiotic (G418 [Wako], 1 mg/mL). […]\nmBLT2-expressing CHO cells prepared by Biological Example 3 were cultured in modified Hepes-Tyrode's BSA buffer (Hepes-NaOH (25 mM, pH7.4), NaCl (140 mM), KCl (2.7 mM), CaCl2(10 nM), NaHCO3(12 mM), D-Glucose (5.6 mM), NaH2PO4(0.37 mM), MgCl2(0.49 mM), cremophour (0.01%), fatty acid-free BSA (fraction V, 0.1w/v %)) containing fluorochrome (Fura-2 AM [Dojin], 3 μm) at 37° C. for 2 hours to make to take fluorochrome. […] Dimethylsulfoxide (DMSO) solution (5 μL) containing ligand was added to the cell suspension, of which the intracellular calcium concentration was monitored (excitation wavelength 340 nm and 380 nm and fluorescent wave-length 510 nm)."}, "mBLT2 [3]": {"target": "T2, mBLT2", "test": "ERK phosphorylation (1) in mBLT2-expressing CHO cells", "details": "ligand 5 minutes, FIG. 5", "text": "mBLT2 ORF was amplified by PCR using a sense primer having BamHI restriction enzyme site (sense primer; 5′-[…]-3′ (SEQ ID NO.1)) and an antisense primer having EcoRI restriction enzyme site (antisense primer; 5′-[…]-3′ (SEQ ID NO.2)). The PCR product was digested with BamHI and EcoRI and inserted in expression plasmid (pcDNA3 Invitrogen). The inserted sequence was confirmed by the DNA sequence. Plasmid DNA ([…]) was transfected into CHO cells cultured in Ham's F-12 medium containing 10% fetal bovine serum and antibiotic (streptomycin (100 μg/mL) and penicillin (100 μg/L)) in cell culture plates (6 cm). The resistant strains were obtained by culturing for 2 weeks in the existence of antibiotic (G418 [Wako], 1 mg/mL). The stable expressing strains were obtained by culturing 19 obtained resistant strains with limiting dilution method."}, "[4]": {"tested_on": "mouse primary culture keratinocytes", "test": "ERK phosphorylation (2) in mouse primary culture keratinocytes", "details": "FIG. 7"}, "BLT2 [5]": {"target": "T3, BLT2 (Homo sapiens, UniProt Q9NPC1)", "T3 sequence (Q9NPC1 1-358)": "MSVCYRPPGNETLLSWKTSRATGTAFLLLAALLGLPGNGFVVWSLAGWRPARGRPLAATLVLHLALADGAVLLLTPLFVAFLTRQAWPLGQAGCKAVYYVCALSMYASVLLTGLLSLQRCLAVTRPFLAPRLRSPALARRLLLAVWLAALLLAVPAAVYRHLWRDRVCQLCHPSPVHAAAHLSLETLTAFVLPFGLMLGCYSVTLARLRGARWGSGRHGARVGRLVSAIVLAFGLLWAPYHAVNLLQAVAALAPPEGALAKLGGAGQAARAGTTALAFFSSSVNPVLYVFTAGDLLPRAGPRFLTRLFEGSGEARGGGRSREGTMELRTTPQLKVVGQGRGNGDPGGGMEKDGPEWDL", "test": "Evaluation of BLT2 agonistic activity by monitoring the variation of intracellular Ca2+ concentration", "parameters": "expressed in transfected cells", "details": "for BLT2 agonistic activity: classification of the compounds (1) to (46)"}, "BLT1 [6]": {"target": "T4, BLT1 (Homo sapiens, UniProt Q15722)", "T4 sequence (Q15722 whole entry, species assumed)": "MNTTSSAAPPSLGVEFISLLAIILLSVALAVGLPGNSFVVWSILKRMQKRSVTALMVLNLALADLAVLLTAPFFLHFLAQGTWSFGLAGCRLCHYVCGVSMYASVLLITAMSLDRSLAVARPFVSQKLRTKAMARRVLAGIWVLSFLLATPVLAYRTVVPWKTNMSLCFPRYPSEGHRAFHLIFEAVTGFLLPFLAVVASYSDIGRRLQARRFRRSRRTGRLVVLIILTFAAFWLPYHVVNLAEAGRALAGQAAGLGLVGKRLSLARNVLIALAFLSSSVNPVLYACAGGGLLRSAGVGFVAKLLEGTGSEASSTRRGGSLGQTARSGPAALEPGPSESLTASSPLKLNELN", "test": "BLT1 agonistic activity measured by the same way (intracellular Ca2+)", "details": "measured by the same way as BLT2"}, "mock": {"tested_on": "mock", "test": "Measurement of intracellular Ca2+ concentration in mock cells", "details": "FIG. 4", "method": "mBLT2-expressing CHO cells prepared by Biological Example 3 were cultured in modified Hepes-Tyrode's BSA buffer (Hepes-NaOH (25 mM, pH7.4), NaCl (140 mM), KCl (2.7 mM), CaCl2(10 nM), NaHCO3(12 mM), D-Glucose (5.6 mM), NaH2PO4(0.37 mM), MgCl2(0.49 mM), cremophour (0.01%), fatty acid-free BSA (fraction V, 0.1w/v %)) containing fluorochrome (Fura-2 AM [Dojin], 3 μm) at 37° C. for 2 hours to make to take fluorochrome. These cells were washed 2 times and resuspended (10^6 cells/mL) in Hepes-Tyrode's BSA buffer. The cell suspension (0.5 mL) was applied to fluorescent intensity meter (CAF-100 system [Jasco]). Dimethylsulfoxide (DMSO) solution (5 μL) containing ligand was added to the cell suspension, of which the intracellular calcium concentration was monitored (excitation wavelength 340 nm and 380 nm and fluorescent wave-length 510 nm)."}, "mBLT1 [7]": {"target": "T1, mBLT1", "test": "Measurement of intracellular Ca2+ concentration in mBLT1-expressing CHO cells", "details": "FIG. 4"}, "BLT2 [8]": {"target": "T3, BLT2", "test": "Evaluation of BLT2 antagonistic activity by monitoring the variation of intracellular Ca2+ concentration", "parameters": "expressed in transfected cells; host or cells: CHO cells", "method": "(§1) The receptor antagonist activity was evaluated by using human BLT2 gene-overexpressing Chinese Hamster Ovar (CHO) cells (see J. Exp. Med. Volume 192, Number 3 2000, and 421-.). BLT2-expressing cells were cultured in Ham 's F1 medium (GIBCO BRL and No. 11765-047) containing 10% FBS (fetal bovine serum), penicillin/streptomycin and blasticidin (5 μg/ml). First, to make the cells to take Fura2-AM (Dojindo and No. 348-05831), the cells were incubated in 5 μM Fura2-AM solution (Ham's F1 medium containing 10% FBS, 20 mM HEPES buffer (pH7.4) and 2.5 mM probenecid (Sigma and No. P-8761)) at 37° C. for 60 minutes. Then, the cells were washed once with Hanks solution containing 20 mM HEPES buffer (pH7.4) and 2.5 mM probenecid, and soaked in Hanks solution until assay. The plate was sat up on fluorescent drug screening system (Hamamatsu Photonics FDSS-2000) and measured without any stimulation for 30 seconds, to which the compound solution of the present invention was added. […] The compound of the present invention was dissolved to dimethylsulfoxide (DMSO) and added in order that the final concentration is […]. […] IC50 value is a concentration of the compound of the present invention in which the inhibition ratio is 50%. Also, BLT1 antagonistic activity was measured by the same way."}, "BLT1 [9]": {"target": "T4, BLT1", "test": "BLT1 antagonistic activity measured by the same way (intracellular Ca2+)", "details": "measured by the same way as BLT2", "method": "as §1"}},
  "data": [
    {"smiles": "CCCCC/C=C\\C[C@@H](O)/C=C/C=C/C=C\\[C@@H](O)CCCC(=O)O", "note": "[LTB4, 5-[S], 12-[R]-dihydroxy-6,14-cis-8,10-trans-eicosatetraenoic acid, reference compound]", "values": [
      {"measurement": "ERK phosphorylation", "setting": "mBLT1 [1]", "result": "induced"},
      {"measurement": "EC50", "setting": "mBLT2 [2]", "result": 0.121, "unit": "µM"},
      {"measurement": "ERK phosphorylation", "setting": "mBLT2 [3]", "result": "induced"},
      {"measurement": "ERK phosphorylation", "setting": "[4]", "result": "induced ERK phosphorylation"}
    ]},
    {"smiles": "O=C(Cc1ccccc1)NCc1ccc(-c2ccccc2C(=O)O)cc1", "note": "[Example 13, 4′-{[(phenylacetyl)amino]methyl}-1,1′-biphenyl-2-carboxylic acid]", "values": [
      {"measurement": "IC50", "setting": "BLT2 [5]", "result": 0.045, "unit": "µM"},
      {"measurement": "BLT1 agonistic activity", "setting": "BLT1 [6]", "result": "did not have BLT1 agonistic activity"}
    ]},
    {"smiles": "CCCCC(=O)N(Cc1ccc(-c2ccccc2C(=O)O)cc1)c1ccccc1", "note": "[compound A, 4′-{[pentanoyl(phenyl)amino]methyl}-1,1′-biphenyl-2-carboxylic acid]", "values": [
      {"measurement": "ERK phosphorylation", "setting": "mBLT1 [1]", "result": "induced"},
      {"measurement": "EC50", "setting": "mBLT2 [2]", "result": 0.021, "unit": "µM"},
      {"measurement": "ERK phosphorylation", "setting": "mBLT2 [3]", "result": "induced"},
      {"measurement": "rise of intracellular calcium concentration", "setting": "mock", "result": "not rised"},
      {"measurement": "rise of intracellular calcium concentration", "setting": "mBLT1 [7]", "result": "not rised"},
      {"measurement": "ERK phosphorylation", "setting": "[4]", "result": "induced ERK phosphorylation"}
    ]},
    {"smiles": "CCCCN(Cc1ccc(-c2ccccc2-c2nnn[nH]2)cc1)C(=O)NCCc1ccc(O)cc1", "note": "[(9), N-butyl-N′-[2-(4-hydroxyphenyl)ethyl]-N-{[2′-(1H-tetrazol-5-yl)biphenyl-4-yl]methyl}urea]", "values": [
      {"measurement": "BLT2 agonistic activity", "setting": "BLT2 [5]", "result": "BLT2 agonistic activity"}
    ]},
    {"smiles": "CCCCN(Cc1ccc(-c2ccccc2-c2nnn[nH]2)cc1)C(=O)N[C@@H](C)c1ccccc1", "note": "[(21), N-butyl-N′-[(1S)-1-phenylethyl]-N-{[2′-(1H-tetrazol-5-yl)biphenyl-4-yl]methyl}urea]", "values": [
      {"measurement": "BLT2 agonistic activity", "setting": "BLT2 [5]", "result": "BLT2 agonistic activity"}
    ]},
    {"smiles": "O=C([O-])c1ccc(-c2cccc(CN(CCCc3ccccc3)C(=O)CCc3ccccc3)c2)cc1.[Na+]", "note": "[Example 1(32), sodium 3′-{[(3-phenylpropanoyl)(3-phenylpropyl)amino]methyl}-1,1′-biphenyl-4-carboxylate]", "values": [
      {"measurement": "IC50", "setting": "BLT2 [8]", "result": 1.8, "unit": "µM"},
      {"measurement": "BLT1 antagonistic activity", "setting": "BLT1 [9]", "result": "did not have BLT1 antagonistic activity"}
    ]},
    {"smiles": "CCCCN(Cc1ccc(-c2ccccc2-c2nnn[nH]2)cc1)C(=O)Nc1ccccc1O", "note": "[(39), N-butyl-N′-(2-hydroxyphenyl)-N-{[2′-(1H-tetrazol-5-yl)biphenyl-4-yl]methyl}urea]", "values": [
      {"measurement": "BLT2 agonistic activity", "setting": "BLT2 [5]", "result": "BLT2 agonistic activity"}
    ]},
    {"smiles": "CCCCN(Cc1ccc(-c2ccccc2-c2nnn[nH]2)cc1)C(=O)Nc1cccc(OC)c1", "note": "[(16), N-butyl-N′-(3-methoxyphenyl)-N-{[2′-(1H-tetrazol-5-yl)biphenyl-4-yl]methyl}urea]", "values": [
      {"measurement": "BLT2 agonistic activity", "setting": "BLT2 [5]", "result": "BLT2 agonistic activity"}
    ]}
  ]
}
